Results reported in patent US4032654A, “Water-soluble, liquid concentrates of S-methyl-[(methyl-carbamoyl)oxy]-thioacetimidate and methyl N', N'-dimethyl-N-[(methyl-carbamoyl)oxy]-1-thiooxamimidate” (priority 1975, dated 1977).
Like-named read-outs stand apart in the source and are kept apart here.

Settings: 30% cyclohexanone, 30% cyclohexanol, 30% water, 10% methanol, -6° C.; for Solubility, both actives in solvent: Methomyl: with oxamyl
Description: Methomyl and Oxamyl Solubility In Cyclohexanone, Cyclohexanol, CH3 OH and H2 O at -6° C.
Methomyl and oxamyl were dissolved separately and in weight ratios of 1:1, 2:1 and 1:2.5 methomyl to oxamyl in a solvent system consisting of 30 wt. % cyclohexanone, 30 wt. % cyclohexanol, 30 wt. % water and 10 wt. % methanol. These solutions were equilibrated at -6° C. and seeded with methomyl and/or oxamyl crystals. The samples of liquid and solids remained at -6° C. until solid-liquid equilibrium was assured. A liquid sample was removed from each at -6° C. and assayed for methomyl and/or oxamyl. Solids were also isolated at -6° C., washed, dried and dissolved in CH3 OH to yield a 10% solution which was analyzed by TLC to ensure both methomyl and oxamyl crystals were present in the solids of the combination sample. All such solids contained both oxamyl and methomyl.
SOLUBILITY OF METHOMYL AND OXAMYL (2:1, 1:1 and 1:2.5 Wt.
RATIOS) IN CYCLOHEXANONE, CYCLOHEXANOL, CH3 OH AND H2 O

With `CNC(=O)ON=C(C)SC` [Methomyl] the “Solubility, Methomyl alone in solvent” value (alone) was 24.5 gms/100 gms solvent, the “Solubility, both actives in solvent: Methomyl” value (shortened to “Solubility, both actives”) (ratio 1:1) was 39.6 gms/100 gms solvent and the “Solubility, both actives” value (ratio 1:2.5) was 40.2 gms/100 gms solvent. The “Solubility, both actives” value (ratio 2:1) was 42.7 gms/100 gms solvent.
